Reference: patent publication US11932626B2, “2-pyrimidone analogs as potent antiviral agents against Alphaviruses” (priority 2020, dated 2024)

How the values were obtained:
CHIKV = CHIKV virus titer reduction (VTR) assay in NHDF cells; type: cell-based; conditions: Chikungunya virus; for log reduction at 10 µM: CHIKV titer reduction at 10 μM, normal human dermal fibroblasts (NHDF) cells; for EC90: effective concentration of 90% inhibition of virus in a VTR assay, NHDF cells
VEEV = experiment: microbe, parasite or virus in culture; type: cell-based; conditions: Venezuelan equine encephalitis virus, NHDF; for EC90: read-out: VEEV EC90; for log reduction at 10 µM: read-out: VEEV VTR
in vitro = conditions: human
[1] = tested on: CHIKV linked NanoLuc luciferase reporter; experiment: microbe, parasite or virus in culture; type: cell-based; conditions: Chikungunya virus, read-out: CHIKV EC50
VEEV (TC-83) = experiment: microbe, parasite or virus in culture; type: cell-based; conditions: Venezuelan equine encephalitis virus, read-out: VEEV EC50

| SMILES | log reduction at 10 µM (CHIKV) | EC90 (CHIKV) [nM] | EC90 (VEEV) [nM] | log reduction at 10 µM (VEEV) | CC50 (in vitro) [nM] | EC50 [1] [nM] | EC50 (VEEV (TC-83)) [nM] |
| --- | --- | --- | --- | --- | --- | --- | --- |
| CC(C)Cc1cc(OCC(=O)NC23CC4CC(CC(C4)C2)C3)nc(=O)[nH]1 [compound 10, N-(Adamantan-1-Yl)-2-((6-Isobutyl-2-Oxo-1,2-Dihydropyrimidin-4-Yl)Oxy)Acetamide] | 8.16 | 310 | 1200 | 2.74 | > 40000 | 1150 | 19700 |
| O=C(COc1cc(N2CCOCC2)[nH]c(=O)n1)NC12CC3CC(CC(C3)C1)C2 [compound 19, N-(Adamantan-1-Yl)-2-((6-Morpholino-2-Oxo-1,2-Dihydropyrimidin-4-Yl)Oxy)Acetamide] | 4.84 | 740 | 3200 | 4.4 | > 40000 | 2380 | 33300 |
| COC(=O)c1c(SCC(=O)NC23CC4CC(CC(C4)C2)C3)nc(=O)[nH]c1C [compound 1] | 6.9 | 89 | 1900 | – | > 127000 | 660 | 4330 |
| O=C(CSc1cc[nH]c(=O)n1)NC1C2CC3CC(C2)CC1C3 (stereo not drawn) [compound 4, N-(Adamantan-2-Yl)-2-((2-Oxo-1,2-Dihydropyrimidin-4-Yl)Thio)Acetamide] | 7.3 | 610 | – | 5.88 | > 40000 | 437 | 1680 |
| O=C(COc1cc(N2CC(F)(F)C2)[nH]c(=O)n1)NC12CC3CC(CC(C3)C1)C2 [compound 20, N-(Adamantan-1-Yl)-2-((6-(3,3-Difluoroazetidin-1-Yl)-2-Oxo-1,2-Dihydropyrimidin-4-Yl)Oxy)Acetamide] | 3.49 | 67 | 400 | 6.63 | > 40000 | < 78 | 2010 |
| O=C(COc1nc(=O)[nH]cc1Cl)NC12CC3CC(CC(C3)C1)C2 [compound 28, N-(Adamantan-1-Yl)-2-((5-Chloro-2-Oxo-1,2-Dihydropyrimidin-4-Yl)Oxy)Acetamide] | 1.6 | 10000 | > 10000 | 0.71 | > 40000 | 33400 | > 40000 |
| O=C(COc1cc(C2CC(F)(F)C2)[nH]c(=O)n1)NC12CC3CC(CC(C3)C1)C2 [compound 14, N-(Adamantan-1-Yl)-2-((6-(3,3-Difluorocyclobutyl)-2-Oxo-1,2-Dihydropyrimidin-4-Yl)Oxy)Acetamide] | 3.17 | 70 | 30 | 8.19 | > 40000 | < 78 | 830 |
| O=C(COc1cc(C2CC2)[nH]c(=O)n1)NC12CC3CC(CC(C3)C1)C2 [compound 11, N-(Adamantan-1-Yl)-2-((6-Cyclopropyl-2-Oxo-1,2-Dihydropyrimidin-4-Yl)Oxy)Acetamide] | 1.05 | 560 | 1100 | 2.97 | > 40000 | 240 | 20600 |
| O=C(COc1cc(Oc2ccc(F)cc2)[nH]c(=O)n1)NC12CC3CC(CC(C3)C1)C2 [compound 37, N-(adamantan-1-yl)-2-((6-(4-fluorophenoxy)-2-oxo-1,2-dihydropyrimidin-4-yl)oxy)acetamide] | 0 | > 10000 | > 10000 | 0.8 | > 40000 | > 40000 | > 40000 |
| O=C(COc1nc(=O)[nH]c2c1CCC2)NC12CC3CC(CC(C3)C1)C2 [compound 21, N-(Adamantan-1-Yl)-2-((2-Oxo-2,5,6,7-Tetrahydro-1H-Cyclopenta[D]Pyrimidin-4-Yl)Oxy)Acetamide] | 4.26 | 300 | 1000 | 5.2 | > 40000 | 530 | 15700 |
| O=C(COc1cc(Cl)[nH]c(=O)n1)NC12CC3CC(CC(C3)C1)C2 [compound 18, N-(Adamantan-1-Yl)-2-((6-Chloro-2-Oxo-1,2-Dihydropyrimidin-4-Yl)Oxy)Acetamide] | 5.19 | 510 | 5650 | 1 | > 40000 | 810 | 16100 |
| Cc1cc(OCC(=O)NC23CC4CC(CC(C4)C2)C3)nc(=O)[nH]1 [compound 9, N-(Adamantan-1-Yl)-2-((6-Methyl-2-Oxo-1,2-Dihydropyrimidin-4-Yl)Oxy)Acetamide] | 1.81 | 3500 | 1100 | 1.37 | > 40000 | 1200 | 20000 |
| O=C(COc1cc(C(F)(F)F)[nH]c(=O)n1)NC12CC3CC(CC(C3)C1)C2 [compound 16, N-(Adamantan-1-Yl)-2-((2-Oxo-6-(Trifluoromethyl)-1,2-Dihydropyrimidin-4-Yl)Oxy)Acetamide] | 1.09 | 15000 | > 10000 | 0 | > 40000 | > 40000 | > 40000 |
| CC(C)Oc1cc(OCC(=O)NC23CC4CC(CC(C4)C2)C3)nc(=O)[nH]1 [compound 45, N-(Adamantan-1-Yl)-2-((6-Isopropoxy-2-Oxo-1,2-Dihydropyrimidin-4-Yl)Oxy)Acetamide] | 5.58 | 80 | 980 | 2.62 | > 40000 | 429 | 8940 |
| O=C(COc1nc(=O)[nH]c(OCCO)c1F)NC12CC3CC(CC(C3)C1)C2 [compound 50, N-(adamantan-1-yl)-2-((5-fluoro-6-(2-hydroxyethoxy)-2-oxo-1,2-dihydropyrimidin-4-yl)oxy)acetamide] | 0 | > 10000 | > 10000 | 0.5 | > 40000 | 25400 | > 40000 |
| O=C(COc1nc(=O)[nH]c(N2CC(F)(F)C2)c1F)NC12CC3CC(CC(C3)C1)C2 [compound 35, N-(Adamantan-1-Yl)-2-((6-(3,3-Difluoroazetidin-1-Yl)-5-Fluoro-2-Oxo-1,2-Dihydropyrimidin-4-Yl)Oxy)Acetamide] | 4 | 51 | 1500 | 3.35 | > 40000 | 700 | 5190 |
| O=C(COc1cc(OC2CC2)[nH]c(=O)n1)NC12CC3CC(CC(C3)C1)C2 [compound 48, N-(Adamantan-1-Yl)-2-((6-Cyclopropoxy-2-Oxo-1,2-Dihydropyrimidin-4-Yl)Oxy)Acetamide] | 5.51 | 60 | 650 | 3.28 | > 40000 | 283 | 3770 |
| O=C(COc1cc(-c2ccccc2)[nH]c(=O)n1)NC12CC3CC(CC(C3)C1)C2 [compound 15, N-(Adamantan-1-Yl)-2-((2-Oxo-6-Phenyl-1,2-Dihydropyrimidin-4-Yl)Oxy)Acetamide] | 8.93 | 2700 | 2020 | 3.25 | > 40000 | 1470 | 20800 |
| Cc1c[nH]c(=O)nc1OCC(=O)NC12CC3CC(CC(C3)C1)C2 [compound 25, N-(Adamantan-1-Yl)-2-((5-Methyl-2-Oxo-1,2-Dihydropyrimidin-4-Yl)Oxy)Acetamide] | 4.91 | 2100 | 2830 | 3.04 | > 40000 | 1970 | 16100 |
| CC(C)(C#N)COc1cc(OCC(=O)NC23CC4CC(CC(C4)C2)C3)nc(=O)[nH]1 [compound 52, N-(Adamantan-1-Yl)-2-((6-(2-Cyano-2-Methylpropoxy)-2-Oxo-1,2-Dihydropyrimidin-4-Yl)Oxy)Acetamide] | 2.42 | 2500 | 2500 | 2.5 | > 40000 | 13700 | > 40000 |
| O=C(COc1cc(C2CCCC2)[nH]c(=O)n1)NC12CC3CC(CC(C3)C1)C2 [compound 13, N-(Adamantan-1-Yl)-2-((6-Cyclopentyl-2-Oxo-1,2-Dihydropyrimidin-4-Yl)Oxy)Acetamide] | 5.93 | 40 | 4500 | 1.94 | > 40000 | 1240 | 17400 |
| O=C(COc1nc(=O)[nH]c(N2C3CCC2COC3)c1F)NC12CC3CC(CC(C3)C1)C2 [compound 34, 2-((6-(3-Oxa-8-Azabicyclo[3.2.1]Octan-8-Yl)-5-Fluoro-2-Oxo-1,2-Dihydropyrimidin-4-Yl)Oxy)-N-(Adamantan-1-Yl)Acetamide] | 6.13 | 190 | 5000 | 1.97 | > 40000 | 1020 | 22500 |
| COc1cc(OCC(=O)NC23CC4CC(CC(C4)C2)C3)nc(=O)[nH]1 [compound 36, N-(adamantan-1-yl)-2-((6-methoxy-2-oxo-1,2-dihydropyrimidin-4-yl)oxy)acetamide] | 4.56 | 230 | > 10000 | 0.63 | > 40000 | 1140 | > 40000 |
